Laboratory results: patent US20110150961A1, “ANTI-INFECTIVE CATHETERS” (priority 2008, published 2011)
Values after ≈ are worked out from the molar mass of the structure shown. Values joined by “and” are separate entries in the source; they are usually repeats but may differ in a detail not shown here. Identical values can stand only once. Like-named read-outs stand apart in the source and are kept apart here.

Tests used:
E. coli [1] = assay: MIC testing by broth microdilution, clinical isolates (Example 4); assay type: cell-based; conditions: Escherichia coli, N=102
Method: (§1) The Gram-positive organisms tested were S. epidermidis, methicillin resistant S. epidermidis (MRSE), S. aureus, methicillin resistant S. aureus (MRSA), E. faecalis and vancomycin resistant E. faecalis, the Gram-negative organisms tested were P. aeruginosa, E. coli and K. pneumoniae .
(§2) For MIC testing, all isolates were tested against 5-FU by broth microdilution following CLSI methodology (M7-A7).

E. faecalis [2] = assay: as above; assay type: cell-based
Method: as §1, §2

K. pneumoniae [3] = assay: as above; assay type: cell-based; conditions: Klebsiella pneumoniae, N=104
Method: as §1, §2

P. aeruginosa [4] = assay: as above; assay type: cell-based; conditions: Pseudomonas aeruginosa, N=100
Method: as §1, §2

S. aureus [5] = assay: as above; assay type: cell-based
Method: as §1, §2

S. epidermidis [6] = assay: as above; assay type: cell-based
Method: as §1, §2

Gram-negative isolates = assay: MIC testing by broth microdilution, summary (Example 4); assay type: cell-based; conditions: range over organisms
Method: as §1, §2

Gram-positive organisms = assay: as above; assay type: cell-based; conditions: range over organisms
Method: as §1, §2

E. coli [7] = assay: Broth microdilution MIC and MBC (Example 9); assay type: cell-based
Method: (§3) Minimal bactericidal concentrations (MBCs) were determined for bacterial isolates associated with catheter-related infections (Attachment 18.18). Broth microdilution MBCs were determined by first performing the standard broth microdilution technique to establish the 5-FU MIC for each organism (CLSI M7-A7). […] were sampled to determine the MBC as defined as the concentration at which a ≧99.9% reduction in the colony forming units relative to the starting inoculum concentration was achieved. When the MBC:MIC ratio for 5-FU was […].

E. faecalis [8] = assay: Broth microdilution MIC and MBC (Example 9); assay type: cell-based
Method: as §3

K. pneumoniae [9] = assay: Broth microdilution MIC and MBC (Example 9); assay type: cell-based
Method: as §3

P. aeruginosa [10] = assay: Broth microdilution MIC and MBC (Example 9); assay type: cell-based
Method: as §3

S. aureus [11] = assay: Broth microdilution MIC and MBC (Example 9); assay type: cell-based
Method: as §3

S. epidermidis [12] = assay: Broth microdilution MIC and MBC (Example 9); assay type: cell-based
Method: as §3

E. faecalis ATCC 29212 = assay: MIC and MBC on ATCC control strains (Example 10); assay type: cell-based; conditions: Enterococcus faecalis
Text: (§4) The Gram-positive organisms tested were S. epidermidis ATCC 12228, S. aureus ATCC 25923, and E. faecalis ATCC 29212. The Gram-negative strains tested were P. aeruginosa ATCC 27853, K. pneumonia ATCC 700603 and E. coli ATCC 25922.

P. aeruginosa ATCC 27853 = assay: MIC and MBC on ATCC control strains (Example 10); assay type: cell-based; conditions: Pseudomonas aeruginosa
Text: as §4

S. aureus ATCC 25923 = assay: MIC and MBC on ATCC control strains (Example 10); assay type: cell-based; conditions: Staphylococcus aureus
Text: as §4

[13] = tested on: S. epidermidis ATCC 12228; assay: MIC and MBC on ATCC control strains (Example 10); assay type: cell-based; conditions: Staphylococcus epidermidis
Text: as §4

K. pneumonia ATCC 700603 = assay: MIC and MBC on ATCC control strains (Example 10); assay type: cell-based, K. pneumoniae; conditions: Klebsiella pneumoniae
Text: as §4

[14] = tested on: S. epidermidis and S. aureus
Text: Microbial resistance is a concern associated with repeated exposure to anti-microbial agents.

[15] = IV, cited from earlier work
mammalian species = mammalian species (PDR 1998); cited from earlier work
E. coli [16] = assay: Multi-organism zone-of-inhibition screening (Example 15); assay type: cell-based; conditions: 24 hr, one sample per plate, antibiotic disks 6 mm (Gentamicin 10 μg, penicillin 10 units)
Method: (§5) The 5-FU CVC was compared with the commercially available Arrow CVC. Gentamicin (10 μg) or penicillin (10 units) disks were used as positive controls and CVC was used as the negative control. The samples were challenged with 3 species of Gram-positive bacteria, 4 species of Gram-negative bacteria and 1 type of yeast. The organisms used to challenge the samples were the following ATCC strains: S. aureus, Methicillin Resistant Staphylococcus aureus (MRSA), S. epidermidis, K. pneumoniae, and Vancomycin Resistant Pediococcus (VRP), E. coli, P. aeruginosa and C. albicans.
(§6) Organisms were inoculated into 2 mL of liquid agar, which was poured on top of solidified agar. One plate was made per organism. Test articles were inserted into the agar when the plates were solidified and dry. ZOI results were recorded at 24 hr. […] Each plate also contained one negative and one positive control sample and 1 Arrow CVC sample.

K. pneumoniae [17] = assay: as above; assay type: cell-based; conditions: 24 hr, one sample per plate, antibiotic disks 6 mm (Gentamicin 10 μg, penicillin 10 units)
Method: as §5, §6

[18] = tested on: Methicillin Resistant Staphylococcus aureus (MRSA); assay: as above; assay type: cell-based; conditions: 24 hr, one sample per plate, antibiotic disks 6 mm (Gentamicin 10 μg, penicillin 10 units)
Method: as §5, §6

P. aeruginosa [19] = assay: as above; assay type: cell-based; conditions: 24 hr, one sample per plate, antibiotic disks 6 mm (Gentamicin 10 μg, penicillin 10 units)
Method: as §5
Organisms were inoculated into 2 mL of liquid agar, which was poured on top of solidified agar. One plate was made per organism. Test articles were inserted into the agar when the plates were solidified and dry. ZOI results were recorded at 24 hr. Three 0.5-cm sections of the 5-FU CVC were tested on each plate. Each plate also contained one negative and one positive control sample and 1 Arrow CVC sample.

[20] = Enterococcus faecalis, all, N=101, read-out: MIC90
[21] = Staphylococcus aureus, Oxacillin-R, N=40
[22] = Staphylococcus aureus, Oxacillin-S, N=61
[23] = Staphylococcus aureus, all, N=101
[24] = Staphylococcus epidermidis, Oxacillin-R, N=78
[25] = Staphylococcus epidermidis, Oxacillin-S, N=22
[26] = Staphylococcus epidermidis, all, N=100

With `O=c1[nH]cc(F)c(=O)[nH]1` [5-FU, 5-fluorouracil] the MIC50 (E. coli [1]) was 32 µg/mL (≈ 246 µM), the MIC90 (E. coli [1]) was 64 µg/mL (≈ 492 µM) and the MIC50 (E. faecalis [2]; Enterococcus faecalis, all, N=101, read-out: MIC50) was 0.015 µg/mL (≈ 0.115 µM). For the same compound, the MIC90 (E. faecalis [2]; [20]) was 0.06 µg/mL (≈ 0.461 µM), the MIC50 (E. faecalis [2]; Vancomycin-R, N=21) was 0.015 µg/mL (≈ 0.115 µM) and the MIC90 (E. faecalis [2]; Vancomycin-R, N=21) was 0.06 µg/mL (≈ 0.461 µM). For the same compound, the MIC50 (E. faecalis [2]; Vancomycin-S, N=80) was 0.015 µg/mL (≈ 0.115 µM), the MIC90 (E. faecalis [2]; Vancomycin-S, N=80) was 0.06 µg/mL (≈ 0.461 µM) and the MIC50 (K. pneumoniae [3]) was 128 µg/mL (≈ 984 µM). The MIC90 (K. pneumoniae [3]) was over 512 µg/mL, the MIC50 (P. aeruginosa [4]) was 16 µg/mL (≈ 123 µM) and the MIC90 (P. aeruginosa [4]) was 64 µg/mL (≈ 492 µM). The MIC50 (S. aureus [5]; Oxacillin-R, N=40) was 0.12 µg/mL (≈ 0.923 µM), the MIC50 (S. aureus [5]; Oxacillin-S, N=61) was 0.12 µg/mL (≈ 0.923 µM) and the MIC90 (S. aureus [5]; [21]) was 0.12 µg/mL (≈ 0.923 µM). It also gave an MIC90 (S. aureus [5]; [22]) of 0.25 µg/mL (≈ 1.92 µM), an MIC90 (S. aureus [5]; [23]) of 0.25 µg/mL (≈ 1.92 µM) and an MIC50 (S. aureus [5]; Staphylococcus aureus, all, N=101, read-out: MIC50) of 0.12 µg/mL (≈ 0.923 µM). For the same compound, the MIC50 (S. epidermidis [6]; Oxacillin-R, N=78) was 0.06 µg/mL (≈ 0.461 µM), the MIC50 (S. epidermidis [6]; Oxacillin-S, N=22) was 0.06 µg/mL (≈ 0.461 µM) and the MIC90 (S. epidermidis [6]; [24]) was 0.5 µg/mL (≈ 3.84 µM). It also gave an MIC90 (S. epidermidis [6]; [25]) of 0.12 µg/mL (≈ 0.923 µM), an MIC90 (S. epidermidis [6]; [26]) of 0.25 µg/mL (≈ 1.92 µM) and an MIC50 (S. epidermidis [6]; Staphylococcus epidermidis, all, N=100, read-out: MIC50) of 0.06 µg/mL (≈ 0.461 µM). It also gave an MIC50 (Gram-negative isolates) of 16 to 128 µg/mL (≈ 123 to 984 µM), an MIC50 (Gram-positive organisms) of 0.015 to 0.12 µg/mL (≈ 0.115 to 0.923 µM) and an MIC range (E. coli [7]; 10 strains) of 0.25 to 64 µg/mL. For the same compound, the “bactericidal, number of strains” value (E. coli [7]; by MBC:MIC ratio) was 1 of the 10, the MIC range (E. faecalis [8]; 10 strains) was 0.008 to 0.12 µg/mL and the “bactericidal, number of strains” value (E. faecalis [8]; by MBC:MIC ratio) was 8 of the 10. For the same compound, the MBC range (E. faecalis [8]; ≧99.9% reduction in CFU) was 0.008 to 0.25 µg/mL, the MBC (K. pneumoniae [9]; Klebsiella pneumoniae, ≧99.9% reduction in CFU, read-out: MBC (all strains)) was over 512 µg/mL and the bactericidal activity (K. pneumoniae [9]; by MBC:MIC ratio) was “no bactericidal activity”. For the same compound, the MBC (P. aeruginosa [10]; Pseudomonas aeruginosa, ≧99.9% reduction in CFU, read-out: MBC (all strains)) was over 512 µg/mL, the bactericidal activity (P. aeruginosa [10]; by MBC:MIC ratio) was “no bactericidal activity” and the MIC range (S. aureus [11]; S. aureus, 11 strains) was 0.03 to 0.25 µg/mL. For the same compound, the “bactericidal, number of strains” value (S. aureus [11]; S. aureus, by MBC:MIC ratio) was 4 of the 11, the MBC range (S. aureus [11]; S. aureus, ≧99.9% reduction in CFU) was 0.12 to 32 µg/mL and the MIC (S. aureus [11]; Staphylococcus aureus, methicillin resistant S. aureus, N=5, read-out: averaged MIC) was 0.12 µg/mL (≈ 0.923 µM). For the same compound, the MIC range (S. epidermidis [12]; S. epidermidis, 10 strains) was 0.03 to 0.25 µg/mL, the “bactericidal, number of strains” value (S. epidermidis [12]; S. epidermidis, by MBC:MIC ratio) was 6 of the 11 and the MBC range (S. epidermidis [12]; S. epidermidis, ≧99.9% reduction in CFU) was 0.03 to 0.25 µg/mL. For the same compound, the MIC (S. epidermidis [12]; Staphylococcus epidermidis, methicillin resistant S. epidermidis, N=8, read-out: averaged MIC) was 0.08 µg/mL (≈ 0.615 µM), the MBC (E. faecalis ATCC 29212; ATCC29212, read-out: MBC) was 3.7 µg/mL (≈ 28.4 µM) and the MIC (E. faecalis ATCC 29212; ATCC29212, read-out: MIC) was 3.7 µg/mL (≈ 28.4 µM). It also gave an MBC (P. aeruginosa ATCC 27853; ATCC27853, read-out: MBC) of over 100 µg/mL, an MIC (P. aeruginosa ATCC 27853; ATCC27853, read-out: MIC) of over 100 µg/mL and an MBC (S. aureus ATCC 25923; ATCC25923, read-out: MBC) of 1.23 µg/mL (≈ 9.46 µM). The MIC (S. aureus ATCC 25923; ATCC25923, read-out: MIC) was 1.23 µg/mL (≈ 9.46 µM), the MBC ([13]; ATCC12228, read-out: MBC) was 0.41 µg/mL (≈ 3.15 µM) and the MIC ([13]; ATCC12228, read-out: MIC) was 0.14 µg/mL (≈ 1.08 µM). The MBC (K. pneumonia ATCC 700603; ATCC700603, read-out: MBC) was over 100 µg/mL, the MIC (K. pneumonia ATCC 700603; ATCC700603, read-out: MIC) was 100 µg/mL (≈ 769 µM) and the “Historical 5-FU MIC values” [14] was 0.06 to 0.12 µg/mL. The plasma levels ([15]; continuous infusion) was “about 10 μM”, the plasma concentrations ([15]; rapid infusion) was 0.1-1.0 mM and 13-130 μg/ml and the LD50 (mammalian species) was 94 to 880 mg/kg.
For `C[C@H]1COc2c(N3CCN(C)CC3)c(F)cc3c(=O)c(C(=O)O)cn1c23` [Levofloxacin], the MIC90 (E. coli [1]) was 16 µg/mL (≈ 44.3 µM), the MIC90 (E. faecalis [2]; [20]) was 64 µg/mL (≈ 177 µM) and the MIC90 (E. faecalis [2]; Vancomycin-R, N=21) was 64 µg/mL (≈ 177 µM). It also gave an MIC90 (E. faecalis [2]; Vancomycin-S, N=80) of 64 µg/mL (≈ 177 µM), an MIC90 (K. pneumoniae [3]) of 0.12 µg/mL (≈ 0.332 µM) and an MIC90 (P. aeruginosa [4]) of 32 µg/mL (≈ 88.6 µM). The MIC90 (S. aureus [5]; [21]) was 32 µg/mL (≈ 88.6 µM), the MIC90 (S. aureus [5]; [22]) was 16 µg/mL (≈ 44.3 µM) and the MIC90 (S. aureus [5]; [23]) was 32 µg/mL (≈ 88.6 µM). For the same compound, the MIC90 (S. epidermidis [6]; [24]) was over 128 µg/mL, the MIC90 (S. epidermidis [6]; [25]) was 128 µg/mL (≈ 354 µM) and the MIC90 (S. epidermidis [6]; [26]) was over 128 µg/mL.
Work on Gentamicin yielded a ZOI (E. coli [16]) of 10.5 mm, a ZOI (K. pneumoniae [17]) of 9.5 mm and a ZOI [18] of 7.1 mm. It also gave a ZOI (P. aeruginosa [19]) of 12.5 mm.
